Literature values as cited in publication PMC2099433, “The binding site for neohesperidin dihydrochalcone at the human sweet taste receptor” (BMC Structural Biology, 2007).

Tests used:
[1] = test system: sweet taste; parameters: method as in PMID 10480680; details: humans; cited from earlier work
[2] = test system: sweet taste; parameters: method as in PMID 831282, PMID 14403185; details: cited from earlier work

Row | Structure (SMILES) | inhibition of the sweet taste of NHDC [1] | taste [2]
1 | COc1ccc(OC(C)C(=O)O)cc1 (centres unmarked) [lactisole] | did not inhibit the sweet taste of NHDC | –
2 | COc1ccc(CCC(=O)c2c(O)cc(O)cc2O)cc1O [hesperitin dihydrochalcone] | – | tastes sweet
